“Also recorded” adds a separate entry of the source.
Columns and labels:
[1] = tested on: ETA receptors; experiment: Inhibition of ET-1 induced vasoconstriction in the gerbil spiral modiolar artery; details: agonist 1 nM ET-1; antagonist 0.1-1 μM; competitive inhibition assumed
[2] = tested on: ETA receptor; details: rat cardiac membranes; ref [6]-[9]; cited from earlier work
[3] = molecular target: ETA receptor; details: read-out: Ki, ET-1 induced contraction of rat aortic strips; ref [6]-[9]; cited from earlier work
[4] = tested on: ETA receptors; details: ref [25], cited from earlier work
[5] = tested on: voltage-gated K^+ currents; experiment: Patch clamp recording of voltage-gated K+ currents in mouse DRG neurons; format: cell-based
[6] = tested on: voltage-gated Ca^2+ currents (LVA, principally Cav3.2 T-type; HVA, mainly L-type); experiment: Patch clamp recording of voltage-gated Ca2+ currents in mouse DRG neurons; format: cell-based
[7] = tested on: voltage-gated Na^+ currents (TTX-sensitive); experiment: Patch clamp recording of voltage-gated Na+ currents in mouse DRG neurons; format: cell-based

In the case of `CC1(C)[C@@H]2CC[C@]3(C)[C@H](CC[C@@H]4CC[C@@]5(O)C[C@]43C=N5)[C@@]2(C)CCC12OCCO2` [(-)-4, (-)-Spiro-(10a, 9)-{(4aR,4bR,6aR,10aS,10bR,12aR)-1,1,4a,10b-tetramethyl-3,4,4a,4b,5,6,6a,7,10,10a,10b,11,12,12a-tetradecahydro-1H-spiro[chrysene-2,2′-[1,3]dioxolane]-10a-yl}methyl-hemiaminal], the “A2 (putative affinity value)” value [1] is reported as 301 nM.
In the case of `CC1(C)C(=O)CC[C@]2(C)[C@H]3CC[C@@H]4CCC(=O)C[C@@]4(C#N)[C@]3(C)CC[C@@H]12` [(+)-2, (+)-(4aS,4bR,6aR,10aR,10bR,12aR)-4b,7,7,10a-Tetramethyl-3,8-dioxo-octadecahydrochrysene-4a-carbonitrile], the “A2 (putative affinity value)” value [1] is reported as 134 nM.
With `CC1(C)C(=O)CC[C@]2(C)[C@H]3CCc4ccc(OCCO)cc4[C@]3(C)CC[C@@H]12` [(-)-6, (-)-(4aR,10bR)-9-(2-Hydroxyethoxy)-1,1,4a,10b-tetramethyl-4,4a,5,6,10b,11,12,12a-octahydro-(1 H,3H,4bH)-chrysen-2-one] the “A2 (putative affinity value)” value [1] was 318 nM.
In the case of `CC1(C)C(=O)CC[C@]2(C)[C@H]3CC[C@@H]4CCC(=O)C=C4[C@]3(C)CC[C@@H]12` [(+)-1, (+)-(4aR,10bR)-1,1,4a,10b-Tetramethyl-4,4a,4b,5,6,6a,7,8,10b,11,12,12a-dodecahydro-chrysene-2,9(1H,3H)-dione], the “A2 (putative affinity value)” value [1] is reported as 193 nM.
In the case of `CC1(C)CC[C@]2(C(=O)O)CC[C@]3(COC(=O)/C=C/c4ccc(O)c(O)c4)C(=CC[C@@H]4[C@@]5(C)CCC(=O)C(C)(C)[C@@H]5CC[C@]43C)[C@@H]2C1` [(+)-myriceric acid A, myriceric acid A], the “Effect on specific binding of [125I]endothelin-1” value [2] is listed as “antagonizes specific binding”, the Ki [3] is listed as 66 ± 15 nM and the “A2 (putative affinity value)” value [1] is listed as 85 nM.
For Endothelin-1 [ET-1], the “Emax, normalized maximal vasoconstriction” value ([4]; normalized to 10 mM Ca2+ vasoconstriction) is listed as 140% and the EC50 ([4]; read-out: EC50 of vasoconstriction, gerbil spiral modiolar artery) is listed as 0.74 nM.
For `CC1(C)[C@@H]2CC[C@]3(C)[C@H](CC[C@@H]4CC=C(O[Si](C)(C)C(C)(C)C)C[C@]43C=N)[C@@]2(C)CCC12OCCO2` [(-)-3, (-)-{(4aR,4bR,6aR,10a S,10bR,12aR)-9-(tert-Butyldimethylsilyloxy)-1,1,4a,10b-tetramethyl-3,4,4a,4b,5,6,6a,7,10,10a,10b,11,12,12a-tetradecahydro-1H-spiro[chrysene-2,2′-[1,3]dioxolane]-10a-yl}methanimin], the “Inhibition of K+ currents” value ([5]; 3 μM) was “non-specific inhibition”, the “Inhibition of K+ currents” value ([5]; 0.1 - 0.3 μM, depolarizing to 70 mV for 300 ms) was “little inhibition; also recorded: little inhibitory effect” and the “Inhibition of Ca2+ currents” value ([6]; 3 μM) was “completely block; also recorded: non-specific inhibition”. The “Inhibition of Ca2+ currents” value ([6]; 0.1 and 0.3 μM, step to -10 mV from Vh -90 mV) was “substantially inhibited”, the “Inhibition of LVA- and HVA-Ca2+ currents” value ([6]; bath application 0.1 - 3 μM) was “concentration-dependent inhibition; also recorded: concentration-dependent blockage” and the “Inhibition of Na+ currents” value ([7]; 0.3 μM (as stated in conclusions)) was “little inhibitions”. For the same molecule, the “Inhibition of Na+ currents” value ([7]; 3 μM) was “non-specific inhibition”, the “Inhibition of Na+ currents” value ([7]; 0.1 - 0.3 μM, depolarizing to 0 mV for 20 ms) was “little inhibition; also recorded: little inhibitory effect” and the “A2 (putative affinity value)” value [1] was 93 nM.
In the case of `CC1(C)C(=O)CC[C@]2(C)[C@H]3CCc4ccc(O)cc4[C@]3(C)CC[C@@H]12` [(-)-5, (-)-(4aR,4bR,10bR)-9-Hydroxy-1,1,4a,10b-tetramethyl-3,4,4a,4b,5,6,10b,11,12,12a-decahydrochrysen-2(1H)-one], the “A2 (putative affinity value)” value [1] is reported as 205 nM.
